PubChem BioAssay AID330 (DTP/NCI, 2004)
Where “and” joins values, the source holds several entries; their conditions need not be identical. Identical values can stand only once. Toxic doses and inconclusive results are not listed.

Tested on: P388 leukemia ip, CD2F1 mice, survival T/C
Assay: NCI In Vivo Anticancer Drug Screen. Data for tumor model P388 Leukemia (intraperitoneal) in CD2F1 (CDF1) mice
Settings: endpoint: median survival time, higher = longer survival
Method in brief: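 Mice carrying the transplanted tumor received test compound or vehicle. Survival was recorded in each group, and the value is the treated-group measurement divided by that of the vehicle-treated control group.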

[1] = dose: 100.0 mg/kg/injection, schedule: Q01DX001 (ip), vehicle: saline with Tween-80
[2] = dose: 200.0 mg/kg/injection, schedule: Q01DX001 (ip), vehicle: saline with Tween-80
[3] = dose: 400.0 mg/kg/injection, schedule: Q01DX001 (ip), vehicle: saline with Tween-80
[4] = dose: 6.25 mg/kg/injection, schedule: Q01DX009 (ip), vehicle: saline
[5] = dose: 12.5 mg/kg/injection, schedule: Q01DX009 (ip), vehicle: saline
[6] = dose: 50.0 mg/kg/injection, schedule: Q01DX009 (ip), vehicle: Klucel (hydroxypropylcellulose) (HPC)
[7] = dose: 100.0 mg/kg/injection, schedule: Q01DX009 (ip), vehicle: Klucel (hydroxypropylcellulose) (HPC)
[8] = dose: 200.0 mg/kg/injection, schedule: Q01DX009 (ip), vehicle: Klucel (hydroxypropylcellulose) (HPC)
[9] = dose: 50.0 mg/kg/injection, schedule: Q01DX005 (ip), vehicle: saline with Tween-80
[10] = dose: 100.0 mg/kg/injection, schedule: Q01DX005 (ip), vehicle: saline with Tween-80
[11] = dose: 200.0 mg/kg/injection, schedule: Q01DX005 (ip), vehicle: saline with Tween-80
[12] = dose: 50.0 mg/kg/injection, schedule: Q01DX005 (ip), vehicle: Klucel (hydroxypropylcellulose) (HPC)
[13] = dose: 100.0 mg/kg/injection, schedule: Q01DX005 (ip), vehicle: Klucel (hydroxypropylcellulose) (HPC)
[14] = dose: 200.0 mg/kg/injection, schedule: Q01DX005 (ip), vehicle: Klucel (hydroxypropylcellulose) (HPC)
[15] = dose: 60.0 mg/kg/injection, schedule: Q01DX005 (ip), vehicle: saline with Tween-80
[16] = dose: 120.0 mg/kg/injection, schedule: Q01DX005 (ip), vehicle: saline with Tween-80
[17] = dose: 240.0 mg/kg/injection, schedule: Q01DX005 (ip), vehicle: saline with Tween-80
[18] = dose: 12.5 mg/kg/injection, schedule: Q04DX002 (ip), vehicle: saline with Tween-80
[19] = dose: 25.0 mg/kg/injection, schedule: Q04DX002 (ip), vehicle: saline with Tween-80
[20] = dose: 50.0 mg/kg/injection, schedule: Q04DX002 (ip), vehicle: saline with Tween-80
[21] = dose: 25.0 mg/kg/injection, schedule: Q01DX009 (ip), vehicle: saline with Tween-80
[22] = dose: 50.0 mg/kg/injection, schedule: Q01DX009 (ip), vehicle: saline with Tween-80
[23] = dose: 100.0 mg/kg/injection, schedule: Q01DX009 (ip), vehicle: saline with Tween-80

[Co].[N-]=C=S.[N-]=C=S.[N-]=C=S.[NH2-].[NH2-].[NH2-]
T/C (dose: 50.0 mg/kg/injection, schedule: Q01DX001 (ip), vehicle: saline with Tween-80): 101 % of control
T/C (dose: 50.0 mg/kg/injection, schedule: Q01DX005 (ip), vehicle: saline): 96 % of control
T/C [1]: 99 % of control and 94 % of control
T/C (dose: 100.0 mg/kg/injection, schedule: Q01DX005 (ip), vehicle: saline): 113 % of control
T/C [2]: 98 % of control and 106 % of control
T/C [3]: 98 % of control

CC1(C)CC2(CC3(C1)S(=O)(=O)CCS3(=O)=O)S(=O)(=O)CCS2(=O)=O
T/C [4]: 103 % of control
T/C [5]: 100 % of control
T/C (dose: 25.0 mg/kg/injection, schedule: Q01DX009 (ip), vehicle: saline): 116 % of control
T/C (dose: 50.0 mg/kg/injection, schedule: Q01DX009 (ip), vehicle: saline): 100 % of control

CC1(C)CC(=O)C(CC(=O)c2ccccc2)=C(NNc2ccncc2)C1
T/C [6]: 94 % of control
T/C [7]: 95 % of control
T/C [8]: 91 % of control

CCCCCCC(=O)/C=C/c1cc(Cl)cc(Cl)c1
T/C [9]: 95 % of control
T/C [10]: 91 % of control
T/C [11]: 92 % of control

NC(=O)CNC(=O)NC(Cc1ccccc1)C(=O)O (centres undefined)
T/C [9]: 105 % of control
T/C [10]: 105 % of control
T/C [11]: 86 % of control

CC1(c2ccccn2)C(=O)c2ccccc2C1=O
T/C [12]: 98 % of control
T/C [13]: 100 % of control
T/C [14]: 99 % of control

O=c1[nH]c(=O)n(COCc2ccccc2)cc1F
T/C (dose: 25.0 mg/kg/injection, schedule: Q04DX003 (ip), vehicle: saline): 98 % of control
T/C (dose: 50.0 mg/kg/injection, schedule: Q04DX003 (ip), vehicle: saline): 98 % of control
T/C (dose: 100.0 mg/kg/injection, schedule: Q04DX003 (ip), vehicle: saline): 98 % of control and 97 % of control
T/C (dose: 200.0 mg/kg/injection, schedule: Q04DX003 (ip), vehicle: saline): 95 % of control
T/C (dose: 400.0 mg/kg/injection, schedule: Q04DX003 (ip), vehicle: saline): 98 % of control

CCOC(=O)c1ccc(N2C(=O)C=CC2=O)cc1
T/C (dose: 3.12 mg/kg/injection, schedule: Q01DX009 (ip), vehicle: saline): 98 % of control
T/C [4]: 98 % of control
T/C [5]: 96 % of control

COc1ccc2c(c1)OC(C)(C)[C@H](c1ccc(O)cc1)[C@@H]2c1ccccc1
T/C [15]: 90 % of control
T/C [16]: 90 % of control

COC(=O)c1cc2c(oc1=O)-c1ccccc1N(C=O)C2
T/C [15]: 86 % of control
T/C [16]: 88 % of control
T/C [17]: 98 % of control

CN(C)c1ccc(C(Cl)[O][Sn]([CH3])([CH3])[Cl])cc1 (centres undefined)
T/C [18]: 106 % of control and 116 % of control
T/C (dose: 12.5 mg/kg/injection, schedule: Q04DX002 (ip), vehicle: saline): 110 % of control
T/C [19]: 101 % of control and 106 % of control
T/C (dose: 25.0 mg/kg/injection, schedule: Q04DX002 (ip), vehicle: saline): 115 % of control
T/C [20]: 116 % of control and 120 % of control
T/C (dose: 50.0 mg/kg/injection, schedule: Q04DX002 (ip), vehicle: saline): 100 % of control
T/C (dose: 100.0 mg/kg/injection, schedule: Q04DX002 (ip), vehicle: saline): 98 % of control

NNC(=O)CNc1ccccc1F
T/C (dose: 15.0 mg/kg/injection, schedule: Q01DX005 (ip), vehicle: saline): 97 % of control
T/C (dose: 30.0 mg/kg/injection, schedule: Q01DX005 (ip), vehicle: saline): 95 % of control
T/C (dose: 60.0 mg/kg/injection, schedule: Q01DX005 (ip), vehicle: saline): 91 % of control and 97 % of control
T/C (dose: 120.0 mg/kg/injection, schedule: Q01DX005 (ip), vehicle: saline): 97 % of control

Cc1cc2[nH]c3c(C#N)c(O)c(C)c(=O)n3c2cc1C
T/C [15]: 100 % of control
T/C [16]: 100 % of control
T/C [17]: 100 % of control

CN=C(N)NN=C(c1ccc(F)cc1)c1ccc(F)cc1
T/C [18]: 100 % of control and 106 % of control
T/C [20]: 87 % of control

Cc1cc(NC(=O)Nc2ccc(F)cc2)no1
T/C [15]: 94 % of control
T/C [16]: 93 % of control
T/C [17]: 96 % of control

COC(=O)c1ncn(C)c1O
T/C (dose: 60.0 mg/kg/injection, schedule: Q01DX005 (ip), vehicle: water): 103 % of control
T/C (dose: 120.0 mg/kg/injection, schedule: Q01DX005 (ip), vehicle: water): 113 % of control
T/C (dose: 240.0 mg/kg/injection, schedule: Q01DX005 (ip), vehicle: water): 104 % of control

O=C1c2ccccc2C2=Cc3ccccc3C(O)N12 (centres undefined)
T/C [15]: 104 % of control
T/C [16]: 100 % of control
T/C [17]: 100 % of control

O=c1c2cccc3cccc(c32)c2nc3ccccc3n12
T/C (dose: 4.12 mg/kg/injection, schedule: Q01DX009 (ip), vehicle: saline with Tween-80): 108 % of control
T/C (dose: 6.25 mg/kg/injection, schedule: Q01DX009 (ip), vehicle: saline with Tween-80): 100 % of control
T/C [21]: 95 % of control

CCOP(O)(=S)OCC.[Ti]
T/C [6]: 96 % of control
T/C [7]: 101 % of control
T/C [8]: 92 % of control

CCOC(=O)C(C#N)C1(O)C(=O)Nc2ccccc21 (centres undefined)
T/C [12]: 104 % of control
T/C [13]: 102 % of control
T/C [14]: 103 % of control

Cc1ccccc1-n1c(COc2c(C)cccc2C)n[nH]c1=S
T/C [12]: 93 % of control
T/C [13]: 97 % of control
T/C [14]: 99 % of control

Cc1cccc(C(=O)NN)c1O
T/C (dose: 12.5 mg/kg/injection, schedule: Q01DX009 (ip), vehicle: saline with Tween-80): 98 % of control
T/C [21]: 104 % of control
T/C [22]: 104 % of control
T/C [23]: 101 % of control

CN1CCC(O)(O)C(Cl)(Cl)C1
T/C (dose: 50.0 mg/kg/injection, schedule: Q01DX005 (ip), vehicle: suspension in saline): 104 % of control
T/C (dose: 100.0 mg/kg/injection, schedule: Q01DX005 (ip), vehicle: suspension in saline): 99 % of control
T/C (dose: 200.0 mg/kg/injection, schedule: Q01DX005 (ip), vehicle: suspension in saline): 95 % of control

CCCC1(C)COC(c2ccc(OC)cc2)OC1 (centres undefined)
T/C [22]: 103 % of control
T/C [1]: 109 % of control
T/C [23]: 112 % of control
T/C [2]: 102 % of control
T/C (dose: 200.0 mg/kg/injection, schedule: Q01DX009 (ip), vehicle: saline with Tween-80): 103 % of control
T/C [3]: 104 % of control

CN1NC(c2ccccc2)=C(C#N)C(=O)CC1c1ccc(Cl)cc1 (centres undefined)
T/C (dose: 3.75 mg/kg/injection, schedule: Q01DX005 (ip), vehicle: saline with Tween-80): 117 % of control
T/C (dose: 7.5 mg/kg/injection, schedule: Q01DX005 (ip), vehicle: saline with Tween-80): 100 % of control and 101 % of control and 113 % of control

O=C(NCCCN1CC1)C(=O)NCCCN1CC1
T/C (dose: 0.78 mg/kg/injection, schedule: Q01DX009 (ip), vehicle: saline): 156 % of control
T/C (dose: 1.56 mg/kg/injection, schedule: Q01DX009 (ip), vehicle: saline): 190 % of control
T/C (dose: 3.13 mg/kg/injection, schedule: Q01DX009 (ip), vehicle: saline): 190 % of control

CCCCc1ccc2nc(C)cc(N=[N+]=[N-])c2c1
T/C [15]: 100 % of control
T/C [16]: 98 % of control

CCOC(=O)c1c(C)c(C(=O)OCC)n2cnc(C(=O)OC)cc12
T/C [19]: 97 % of control
T/C [20]: 106 % of control and 94 % of control
T/C (dose: 100.0 mg/kg/injection, schedule: Q04DX002 (ip), vehicle: saline with Tween-80): 103 % of control and 122 % of control and 97 % of control
T/C (dose: 200.0 mg/kg/injection, schedule: Q04DX002 (ip), vehicle: saline with Tween-80): 104 % of control (2×) and 97 % of control
T/C (dose: 400.0 mg/kg/injection, schedule: Q04DX002 (ip), vehicle: saline with Tween-80): 113 % of control

Cc1ncc2c(n1)CCC1=C2OS(=O)(=O)CC1N(C)C (centres undefined)
T/C [9]: 115 % of control
T/C [10]: 97 % of control
